Results published in paper PMC8408635 (The Journal of Biological Chemistry, 2021).

Tested on: PniDAH7PS
Conditions: read-out: CM activity / KM, 50 mM BTP pH 7.4, 35 °C

Structure (SMILES): C=C(O[C@@H]1C=C(C(=O)O)C=C[C@H]1O)C(=O)O [chorismate]
- Km: 21 ± 2 µM
